Measurements taken from ChEMBL document CHEMBL1131829, “Novel protein kinase C inhibitors: synthesis and PKC inhibition of beta-substituted polythiophene derivatives” (Bioorg Med Chem Lett, 1999).

Molecular target: Protein kinase C (PKC)
Experiment: Inhibition of protein kinase C
Type: protein assay, Rattus norvegicus

SMILES | IC50 [M]
OCc1csc(-c2cccs2)c1 | > 0.001
O=Cc1ccc(-c2ccc(-c3cc(CO)cs3)s2)s1 | 3e-07
O=Cc1csc(-c2ccc(C=O)s2)c1 | 0.001
O=Cc1ccsc1 | > 0.004
O=Cc1csc(-c2ccc(-c3ccc(C=O)s3)s2)c1 | 7e-07
OCc1csc(-c2ccc(-c3cccs3)s2)c1 | 3e-06
OCc1csc(-c2ccc(CO)s2)c1 | > 0.001
O=Cc1csc(-c2ccc(-c3cccs3)s2)c1 | 5e-06
OCc1ccsc1 | > 0.004
CN1CCN(CCCN2c3ccccc3Sc3ccc(C(F)(F)F)cc32)CC1 [TRIFLUOPERAZINE] | 0.0005
O=Cc1csc(-c2ccc(-c3ccc(CO)s3)s2)c1 | 0.00003
O=Cc1csc(-c2cccs2)c1 | 0.0005
OCc1csc(-c2ccc(-c3ccc(CO)s3)s2)c1 | 0.0003
